{"source": "the supplement of paper PMC10307832", "assay_in_all_cases": "relative viability (nuclei count vs DMSO), 5 days (fraction); higher = more cells survive", "key": {"[1]": {"test_system": "NCI-H1993", "procedure,_shortened": "(§1)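 Cells from lung cancer lines were seeded into 1536-well plates and, one day later, dosed by pin tool. Treatments were either a single drug or a fixed dose of an anchor drug with five library-drug doses (not always all listed) in √10 steps. After 5 days, nuclei were stained in a one-step fixation (final 0.05% Triton X-100, 1% formaldehyde, 1 ug/ml Hoechst) and counted on 4× images, and relative viability is the treated-to-vehicle nuclei ratio, as the median of duplicate plates.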"}, "[2]": {"test_system": "NCI-H1944", "procedure,_shortened": "as §1"}, "[3]": {"test_system": "NCI-H358", "procedure,_shortened": "as §1"}, "[4]": {"test_system": "LXF-289", "procedure,_shortened": "as §1"}, "[5]": {"test_system": "NCI-H1792", "procedure,_shortened": "as §1"}, "[6]": {"test_system": "COR-L 105", "procedure,_shortened": "as §1"}, "[7]": {"test_system": "NCI-H2023", "procedure,_shortened": "as §1"}, "[8]": {"test_system": "NCI-H2170", "procedure,_shortened": "as §1"}, "[9]": {"test_system": "NCI-H520", "procedure,_shortened": "as §1"}, "[10]": {"test_system": "NCI-H2087", "procedure,_shortened": "as §1"}, "[11]": {"test_system": "H3255", "procedure,_shortened": "as §1"}, "[12]": {"test_system": "SK-MES-1", "procedure,_shortened": "as §1"}, "[13]": {"test_system": "HCC-827", "procedure,_shortened": "as §1"}, "[14]": {"test_system": "NCI-H1793", "procedure,_shortened": "as §1"}, "[15]": {"test_system": "SW 1573", "procedure,_shortened": "as §1"}, "[16]": {"test_system": "LOU-NH91", "procedure,_shortened": "as §1"}, "[17]": {"test_system": "LCLC-103H", "procedure,_shortened": "as §1"}, "[18]": {"test_system": "NCI-H1975", "procedure,_shortened": "as §1"}, "[19]": {"test_system": "HCC-44", "procedure,_shortened": "as §1"}, "[20]": {"test_system": "NCI-H1915", "procedure,_shortened": "as §1"}, "[21]": {"test_system": "A-427", "procedure,_shortened": "as §1"}}, "data": [{"molecule": "Cc1cn(-c2cc(NC(=O)c3ccc(C)c(Nc4nccc(-c5cccnc5)n4)c3)cc(C(F)(F)F)c2)cn1", "note": "[Nilotinib] + CS(=O)(=O)N1CCN(Cc2cc3nc(-c4cccc5[nH]ncc45)nc(N4CCOCC4)c3s2)CC1 [Pictilisib] (partner 1 µM)", "values": [{"measurement": "relative viability", "setting": "[1]; first compound 0.001 µM", "result": 0.984}, {"measurement": "relative viability", "setting": "[1]; first compound 0.003162 µM", "result": 0.682}, {"measurement": "relative viability", "setting": "[1]; first compound 0.01 µM", "result": 0.789}, {"measurement": "relative viability", "setting": "[1]; first compound 0.03162 µM", "result": 0.917}, {"measurement": "relative viability", "setting": "[1]; first compound 0.1 µM", "result": 0.673}, {"measurement": "relative viability", "setting": "[2]; first compound 0.001 µM", "result": 0.355}, {"measurement": "relative viability", "setting": "[2]; first compound 0.003162 µM", "result": 0.342}, {"measurement": "relative viability", "setting": "[2]; first compound 0.01 µM", "result": 0.358}, {"measurement": "relative viability", "setting": "[2]; first compound 0.03162 µM", "result": 0.345}, {"measurement": "relative viability", "setting": "[2]; first compound 0.1 µM", "result": 0.234}, {"measurement": "relative viability", "setting": "[3]; first compound 0.001 µM", "result": 0.375}, {"measurement": "relative viability", "setting": "[3]; first compound 0.003162 µM", "result": 0.438}, {"measurement": "relative viability", "setting": "[3]; first compound 0.01 µM", "result": 0.348}, {"measurement": "relative viability", "setting": "[3]; first compound 0.03162 µM", "result": 0.444}, {"measurement": "relative viability", "setting": "[3]; first compound 0.1 µM", "result": 0.301}, {"measurement": "relative viability", "setting": "[4]; first compound 0.001 µM", "result": 0.837}, {"measurement": "relative viability", "setting": "[4]; first compound 0.003162 µM", "result": 0.946}, {"measurement": "relative viability", "setting": "[4]; first compound 0.01 µM", "result": 0.858}, {"measurement": "relative viability", "setting": "[4]; first compound 0.03162 µM", "result": 0.667}, {"measurement": "relative viability", "setting": "[4]; first compound 0.1 µM", "result": 0.335}, {"measurement": "relative viability", "setting": "[5]; first compound 0.001 µM", "result": 0.209}, {"measurement": "relative viability", "setting": "[5]; first compound 0.01 µM", "result": 0.266}, {"measurement": "relative viability", "setting": "[6]; first compound 0.001 µM", "result": 0.435}, {"measurement": "relative viability", "setting": "[6]; first compound 0.01 µM", "result": 0.407}, {"measurement": "relative viability", "setting": "[6]; first compound 0.03162 µM", "result": 0.437}, {"measurement": "relative viability", "setting": "[6]; first compound 0.1 µM", "result": 0.331}, {"measurement": "relative viability", "setting": "[7]; first compound 0.001 µM", "result": 0.225}, {"measurement": "relative viability", "setting": "[7]; first compound 0.003162 µM", "result": 0.192}, {"measurement": "relative viability", "setting": "[7]; first compound 0.01 µM", "result": 0.226}, {"measurement": "relative viability", "setting": "[7]; first compound 0.03162 µM", "result": 0.221}, {"measurement": "relative viability", "setting": "[7]; first compound 0.1 µM", "result": 0.101}, {"measurement": "relative viability", "setting": "[8]; first compound 0.001 µM", "result": 0.283}, {"measurement": "relative viability", "setting": "[8]; first compound 0.003162 µM", "result": 0.306}, {"measurement": "relative viability", "setting": "[8]; first compound 0.01 µM", "result": 0.296}, {"measurement": "relative viability", "setting": "[8]; first compound 0.03162 µM", "result": 0.349}, {"measurement": "relative viability", "setting": "[8]; first compound 0.1 µM", "result": 0.299}, {"measurement": "relative viability", "setting": "[9]; first compound 0.001 µM", "result": 0.283}, {"measurement": "relative viability", "setting": "[9]; first compound 0.01 µM", "result": 0.296}, {"measurement": "relative viability", "setting": "[9]; first compound 0.03162 µM", "result": 0.283}, {"measurement": "relative viability", "setting": "[9]; first compound 0.1 µM", "result": 0.232}, {"measurement": "relative viability", "setting": "[10]; first compound 0.001 µM", "result": 0.759}, {"measurement": "relative viability", "setting": "[10]; first compound 0.003162 µM", "result": 0.846}, {"measurement": "relative viability", "setting": "[10]; first compound 0.01 µM", "result": 0.984}, {"measurement": "relative viability", "setting": "[10]; first compound 0.03162 µM", "result": 0.606}, {"measurement": "relative viability", "setting": "[10]; first compound 0.1 µM", "result": 0.32}, {"measurement": "relative viability", "setting": "[11]; first compound 0.001 µM", "result": 0.44}, {"measurement": "relative viability", "setting": "[11]; first compound 0.003162 µM", "result": 0.438}, {"measurement": "relative viability", "setting": "[11]; first compound 0.01 µM", "result": 0.57}, {"measurement": "relative viability", "setting": "[11]; first compound 0.03162 µM", "result": 0.416}, {"measurement": "relative viability", "setting": "[11]; first compound 0.1 µM", "result": 0.441}, {"measurement": "relative viability", "setting": "[12]; first compound 0.001 µM", "result": 0.433}, {"measurement": "relative viability", "setting": "[12]; first compound 0.003162 µM", "result": 0.447}, {"measurement": "relative viability", "setting": "[12]; first compound 0.01 µM", "result": 0.424}, {"measurement": "relative viability", "setting": "[12]; first compound 0.03162 µM", "result": 0.396}, {"measurement": "relative viability", "setting": "[12]; first compound 0.1 µM", "result": 0.465}, {"measurement": "relative viability", "setting": "[13]; first compound 0.001 µM", "result": 0.685}, {"measurement": "relative viability", "setting": "[13]; first compound 0.003162 µM", "result": 0.985}, {"measurement": "relative viability", "setting": "[13]; first compound 0.01 µM", "result": 1.15}, {"measurement": "relative viability", "setting": "[13]; first compound 0.03162 µM", "result": 0.829}, {"measurement": "relative viability", "setting": "[13]; first compound 0.1 µM", "result": 0.965}, {"measurement": "relative viability", "setting": "[14]; first compound 0.003162 µM", "result": 0.32}, {"measurement": "relative viability", "setting": "[14]; first compound 0.01 µM", "result": 0.31}, {"measurement": "relative viability", "setting": "[14]; first compound 0.03162 µM", "result": 0.31}, {"measurement": "relative viability", "setting": "[14]; first compound 0.1 µM", "result": 0.235}, {"measurement": "relative viability", "setting": "[15]; first compound 0.001 µM", "result": 0.486}, {"measurement": "relative viability", "setting": "[15]; first compound 0.003162 µM", "result": 0.652}, {"measurement": "relative viability", "setting": "[15]; first compound 0.01 µM", "result": 0.5}, {"measurement": "relative viability", "setting": "[15]; first compound 0.03162 µM", "result": 0.427}, {"measurement": "relative viability", "setting": "[15]; first compound 0.1 µM", "result": 0.588}, {"measurement": "relative viability", "setting": "[16]; first compound 0.001 µM", "result": 0.548}, {"measurement": "relative viability", "setting": "[16]; first compound 0.003162 µM", "result": 0.537}, {"measurement": "relative viability", "setting": "[16]; first compound 0.01 µM", "result": 0.543}, {"measurement": "relative viability", "setting": "[16]; first compound 0.03162 µM", "result": 0.483}, {"measurement": "relative viability", "setting": "[16]; first compound 0.1 µM", "result": 0.54}, {"measurement": "relative viability", "setting": "[17]; first compound 0.001 µM", "result": 0.649}, {"measurement": "relative viability", "setting": "[17]; first compound 0.003162 µM", "result": 0.638}, {"measurement": "relative viability", "setting": "[17]; first compound 0.03162 µM", "result": 0.755}, {"measurement": "relative viability", "setting": "[17]; first compound 0.1 µM", "result": 0.421}, {"measurement": "relative viability", "setting": "[18]; first compound 0.001 µM", "result": 0.299}, {"measurement": "relative viability", "setting": "[18]; first compound 0.003162 µM", "result": 0.358}, {"measurement": "relative viability", "setting": "[18]; first compound 0.01 µM", "result": 0.231}, {"measurement": "relative viability", "setting": "[18]; first compound 0.03162 µM", "result": 0.312}, {"measurement": "relative viability", "setting": "[18]; first compound 0.1 µM", "result": 0.19}, {"measurement": "relative viability", "setting": "[19]; first compound 0.001 µM", "result": 0.607}, {"measurement": "relative viability", "setting": "[19]; first compound 0.003162 µM", "result": 0.743}, {"measurement": "relative viability", "setting": "[19]; first compound 0.01 µM", "result": 0.589}, {"measurement": "relative viability", "setting": "[19]; first compound 0.03162 µM", "result": 0.517}, {"measurement": "relative viability", "setting": "[19]; first compound 0.1 µM", "result": 0.37}, {"measurement": "relative viability", "setting": "[20]; first compound 0.001 µM", "result": 0.958}, {"measurement": "relative viability", "setting": "[20]; first compound 0.003162 µM", "result": 1.02}, {"measurement": "relative viability", "setting": "[20]; first compound 0.01 µM", "result": 0.903}, {"measurement": "relative viability", "setting": "[20]; first compound 0.03162 µM", "result": 0.993}, {"measurement": "relative viability", "setting": "[20]; first compound 0.1 µM", "result": 0.408}, {"measurement": "relative viability", "setting": "[21]; first compound 0.001 µM", "result": 0.728}, {"measurement": "relative viability", "setting": "[21]; first compound 0.01 µM", "result": 0.731}, {"measurement": "relative viability", "setting": "[21]; first compound 0.03162 µM", "result": 0.658}, {"measurement": "relative viability", "setting": "[21]; first compound 0.1 µM", "result": 0.11}]}]}
